Series [1] in a line: Tissue distribution (liver/plasma) in mice after intragastric administration, LC-MS/MS. The settings on record: C57BL/6 male mice; for Kp at 0.5 h / Kp at 1 h / Kp at 2 h / concentration at 0.5 h / concentration at 1 h / concentration at 2 h: mouse, oral, 5 ml/kg; for Kp at 0.5 h / Kp at 1 h / Kp at 2 h: liver/plasma; for Kp at 0.5 h: read-out: Partition ratios of liver and plasma 0.5 h; for Kp at 1 h: read-out: Partition ratios of liver and plasma 1 h; for Kp at 2 h: read-out: Partition ratios of liver and plasma 2 h. The format is in vivo, C57BL/6 mice. As to the method:
C57BL/6 mice were used as the test animals, the LC-MS/MS method was used to determine the drug concentration in plasma and liver at different times after the mice were administered intragastrically the compounds of Examples 1 to 3 and A13. Pharmacokinetic properties of the compounds of the present invention in mice were studied.
The prescriptions of A13, Example 1 and Example 2 were: 5% DMSO+5% Kolliphor HS15+90% Saline
The prescription of Example 3 was: 10% DMSO+10% Kolliphor HS15+80% Saline
Healthy adult C57BL/6 male mice, purchased from Hunan Slack Jingda Experimental Animal Co., Ltd., with an animal weight of 18-24 g, were administered intragastrically at a dosage of […] and a volume of 10 ml/kg.
Bloods were collected from the orbit at different time points, and the whole blood samples were placed in an anticoagulation tube containing EDTA-K2; the plasma was separated by centrifugation (centrifugation conditions: 12000 rpm, 2 min) and the upper plasma sample was collected and placed into a sample tube.
Animals were dissected and collected livers at different time points, a certain mass of liver tissue was weighed, 5 times the volume (m/V) of methanol solution was added to the homogenization tube, then homogenized at 60 hz for 2 minutes and centrifuged at 4° C. for 2 minutes, the supernatant was taken to obtain the liver homogenate.
LC-MS/MS was used to analyze the content of the test compounds in the plasma and liver of the mice after the compounds were administered intragastrically.

The target in series [2] is ACC2 (Homo sapiens (Human), UniProt O00763). The series is described as follows: In vitro inhibitory activity test of acetyl-CoA carboxylase (ADP-Glo Kinase Analysis), ACC2. The format is biochemical. How it is done:
(§1) The in vitro inhibitory effects of the compounds on ACC1 or ACC2 were tested by ADP-Glo™ Kinase Analysis Kit from Promega Company. The ADP-Glo™ Kinase Analysis was a luminescent ADP detection analysis, which was used to measure enzyme activity by quantifying the amount of ADP produced during the enzyme reaction. The analysis was performed with two steps: first, after the enzyme reaction, ADP-Glo™ reagent was added to stop the reaction and deplete the remaining ATP; then, a kinase detection reagent was added to simultaneously convert ADP to ATP and the newly synthesized ATP was measured using the luciferase/luciferin reaction. The luminescence can be correlated to the ADP concentration by using the ATP to ADP conversion curve.
(§2) The specific steps are as follows: • a. 4.5 μL/well of ACC1/ACC2 working solution (2.22 nM) was added to a 384-well reaction plate (PerkinElmer, 6007290); • b. The compound (10 mM stock solution) was diluted 500 times to 20 μM with 100% DMSO, and diluted in a ratio of 1:3 in a 384 dilution plate (3657, corning). The gradient concentrations of the compound were 20, 6.67, 2.22 0.74, 0.25, 0.082, 0.027, 0.009, 0.003, 0.001, 0 μM; • c. 0.5 μL/well of the compound solution (prepared in step b) was transferred to the 384-well reaction plate (prepared in step a), then plate was centrifuged at 1000 rpm and incubated at 25° C. for 15 minutes; • d. […] Relative luminescence unit (RLU) was read on an Envision multifunction plate reader. […]
(§3) The average values of each concentration and the data of the positive and negative controls were calculated, as well as the standard deviation. The percentage of inhibition was calculated by the formula: 100×(average negative control−compound)/(average negative control−average positive control). The IC50 for each compound was calculated by fitting the data with a nonlinear regression equation: Y=Bottom+(Top−Bottom)/(1+10^((Log IC50−X)×HillSlope)), wherein X is the log of compound concentration and Y is the percentage of inhibition.
(In general: ADP-Glo turns the ADP formed in a reaction into a luminescent signal.)

Series [3] addresses ACC1 (Homo sapiens (Human), UniProt Q13085). The series is described as follows: In vitro inhibitory activity test of acetyl-CoA carboxylase (ADP-Glo Kinase Analysis), ACC1. Type of series: biochemical. As to the method: as §1, §2, §3
Series [4] is described as follows: Liver microsome stability test. The following applies: mouse liver microsomes, Conc. 1 μM; for half-life at 1 μM: male, CD-1; for Remaining (%) (NCF = 60 min): no cofactor (buffer instead of NADPH); for Remaining (%) (T = 60 min): with NADPH. The format is in vitro ADME. As to the method: Male CD-1 mouse liver microsomes, purchased from BD Gentest.
Preparation of stock solution: a certain amount of test compound of A13 and Example 1 were weighed to prepare a stock solution with a concentration of 10 mM with DMSO, and stored in a refrigerator at −20° C.
Preparation of NADPH solution: a certain amount of NADPH to be tested was weighed and prepared a solution with a concentration of 6 mM with 0.1 M potassium phosphate buffer (5 mg of NADPH was weighed and added to 1 mL of potassium phosphate buffer, the concentration was equivalent to 6 mM).
Preparation of compound dosing solution: 100 μM dosing solution: 5 μL of 10 mM stock solution was added to 495 μL of acetonitrile:water (1:1); 30 μM dosing solution: 60 μL of 100 μM dosing solution was added to 140 μL of 0.1 M potassium phosphate buffer; 1.5 μM dosing solution: 25 μL of 30 μM dosing solution and 18.8 μL (20 mg/mL) of liver microsomes were added to 456.2 μL of 0.1 M potassium phosphate buffer, one for each species.
μ30 μL of 1.5 μM dosing solution of the compound was added to a 96-well plate, 150 μL or 200 μL of acetonitrile internal standard was added immediately to the plate, then 15 μL of NADPH solution (6 mM) was added to the plate, the mixture was mixed well and placed in a 4° C. refrigerator as the initial 0 point sample, each drug was made two holes in parallel.
30 μL of 1.5 μM dosing solution was added to positions set at different time points in the 96-well plate, each drug was made two holes in parallel, and the pleat was preheated at 37° C. for 10 min.
After pre-incubation, 15 μL of NADPH solution (6 mM) was added to the well set at the time point of 60 min, at the time point of NCF60, 15 μL of potassium phosphate buffer salt solution was added at the same time to start the reaction and start timing. Then after 40 min, 15 μL of NADPH solution was added to the well set at 20 min. After 20 min, the incubation was over. 150 or 200 μL of acetonitrile internal standard was added to the positions set at all time points. The plate was centrifuged at 4000 rpm for 5 min, 50 μL supernatant was taken out and diluted with 150 μL water for sample analysis.
The initial 0 point was used as 100%, the relative content of the drug at each time point was calculated. GraphPad Prism5 software was used to plot the “relative content of the drug” versus “incubation time” to calculate the half-life of the drug and calculate the intrinsic clearance rate.
On the technique in general: Microsomes from liver hold many membrane-bound enzymes, among them those of drug oxidation.

Where [5] appears, read: liver, read-out: Average tissue concentrations (liver) 0.5 h.
[6] abbreviates: liver, 1 h, read-out: Average tissue concentrations (liver) 1 h.
Setting [7] is: liver, read-out: Average tissue concentrations (liver) 2 h.
[8] abbreviates: plasma, read-out: Average concentration (plasma) 0.5 h.
Setting [9] is: plasma, 1 h, read-out: Average concentration (plasma) 1 h.
[10] abbreviates: plasma, read-out: Average concentration (plasma) 2 h.

In general, pIC50 refers to the negative decadic logarithm of the IC50, by convention in mol/L. A lower pIC50 goes with a large IC50. As usually defined, the half-life is the time in which the quantity being followed falls by half. Read a high half-life as slow loss.

pIC50: −log10 of the molar value. Where two headings read alike, the source gives them in different places.

Chain of ACC2 (O00763 whole entry, species assumed): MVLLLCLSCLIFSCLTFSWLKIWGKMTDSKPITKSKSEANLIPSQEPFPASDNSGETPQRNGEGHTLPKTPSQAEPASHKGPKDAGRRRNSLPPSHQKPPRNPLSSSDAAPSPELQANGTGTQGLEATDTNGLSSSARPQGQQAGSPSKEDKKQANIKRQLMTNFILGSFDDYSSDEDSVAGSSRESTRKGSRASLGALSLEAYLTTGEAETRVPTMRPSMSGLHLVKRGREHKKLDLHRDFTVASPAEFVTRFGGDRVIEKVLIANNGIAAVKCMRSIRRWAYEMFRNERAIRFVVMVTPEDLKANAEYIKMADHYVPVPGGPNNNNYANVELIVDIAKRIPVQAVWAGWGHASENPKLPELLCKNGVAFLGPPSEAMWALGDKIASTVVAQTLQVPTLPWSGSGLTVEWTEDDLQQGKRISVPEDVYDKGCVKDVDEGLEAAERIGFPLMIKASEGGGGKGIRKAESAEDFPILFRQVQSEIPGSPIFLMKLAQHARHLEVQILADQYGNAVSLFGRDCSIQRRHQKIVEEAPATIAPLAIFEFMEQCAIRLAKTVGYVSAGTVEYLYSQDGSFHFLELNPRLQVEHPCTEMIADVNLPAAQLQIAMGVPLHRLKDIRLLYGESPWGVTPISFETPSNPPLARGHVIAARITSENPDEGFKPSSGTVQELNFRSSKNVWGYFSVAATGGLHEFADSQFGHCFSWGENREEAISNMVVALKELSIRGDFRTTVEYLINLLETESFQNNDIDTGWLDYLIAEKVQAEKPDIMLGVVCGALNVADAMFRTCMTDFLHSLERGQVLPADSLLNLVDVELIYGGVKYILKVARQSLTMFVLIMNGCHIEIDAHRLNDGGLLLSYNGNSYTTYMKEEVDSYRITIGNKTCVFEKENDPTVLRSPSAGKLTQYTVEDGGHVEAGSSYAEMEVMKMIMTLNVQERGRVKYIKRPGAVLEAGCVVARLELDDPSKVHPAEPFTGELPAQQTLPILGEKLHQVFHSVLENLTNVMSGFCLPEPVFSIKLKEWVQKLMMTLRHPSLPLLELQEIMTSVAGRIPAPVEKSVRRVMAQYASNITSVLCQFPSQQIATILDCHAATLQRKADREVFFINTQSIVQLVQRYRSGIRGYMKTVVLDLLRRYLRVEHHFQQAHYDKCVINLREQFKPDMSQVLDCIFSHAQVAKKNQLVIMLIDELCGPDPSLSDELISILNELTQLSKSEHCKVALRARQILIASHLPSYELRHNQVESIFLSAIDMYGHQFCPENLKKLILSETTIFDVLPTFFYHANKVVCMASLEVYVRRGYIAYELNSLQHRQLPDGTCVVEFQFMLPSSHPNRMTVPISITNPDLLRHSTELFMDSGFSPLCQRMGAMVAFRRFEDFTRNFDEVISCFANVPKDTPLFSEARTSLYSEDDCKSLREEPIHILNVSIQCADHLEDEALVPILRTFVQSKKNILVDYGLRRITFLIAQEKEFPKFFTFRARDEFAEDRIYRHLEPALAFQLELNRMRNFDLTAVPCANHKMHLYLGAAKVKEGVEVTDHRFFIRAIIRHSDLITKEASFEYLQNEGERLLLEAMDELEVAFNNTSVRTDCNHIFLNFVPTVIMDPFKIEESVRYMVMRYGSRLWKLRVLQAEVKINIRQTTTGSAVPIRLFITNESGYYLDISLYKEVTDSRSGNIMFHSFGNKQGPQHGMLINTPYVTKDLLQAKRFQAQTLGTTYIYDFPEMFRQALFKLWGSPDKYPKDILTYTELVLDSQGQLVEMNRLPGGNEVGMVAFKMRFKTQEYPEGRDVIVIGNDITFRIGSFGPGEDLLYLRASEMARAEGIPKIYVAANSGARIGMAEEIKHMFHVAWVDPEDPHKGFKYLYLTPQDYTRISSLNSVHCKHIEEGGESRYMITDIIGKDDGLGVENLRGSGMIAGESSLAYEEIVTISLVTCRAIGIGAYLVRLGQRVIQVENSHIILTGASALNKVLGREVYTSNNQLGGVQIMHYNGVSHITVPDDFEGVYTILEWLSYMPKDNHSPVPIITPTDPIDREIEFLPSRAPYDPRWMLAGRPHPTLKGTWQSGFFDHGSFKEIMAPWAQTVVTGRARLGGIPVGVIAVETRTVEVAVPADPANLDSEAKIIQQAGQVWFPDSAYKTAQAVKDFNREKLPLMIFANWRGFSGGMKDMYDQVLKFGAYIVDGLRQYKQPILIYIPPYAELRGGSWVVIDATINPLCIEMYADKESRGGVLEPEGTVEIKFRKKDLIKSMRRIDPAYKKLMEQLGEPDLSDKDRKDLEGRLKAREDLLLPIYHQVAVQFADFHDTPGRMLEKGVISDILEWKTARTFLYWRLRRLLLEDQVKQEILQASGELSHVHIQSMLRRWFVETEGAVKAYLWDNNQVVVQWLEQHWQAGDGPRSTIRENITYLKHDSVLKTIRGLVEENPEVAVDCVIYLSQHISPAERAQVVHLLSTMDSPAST

Consider `COc1ccccc1[C@H](Cn1c(=O)n(C(C)(C)C(=O)O)c(=O)c2c(C)c(-c3ncco3)sc21)OC1C[C@@H]2COC[C@H]2C1` [Example 2, 2-[1-[(2R)-2-[[(3aS,6aS)-3,3a,4,5,6,6a-hexahydro-1H-cyclopenta[c]furan-5-yl]oxy]-2-(2-methoxyphenyl)ethyl]-5-methyl-6-oxazol-2-yl-2,4-dioxo-thieno[2,3-d]pyrimidin-3-yl]-2-methyl-propionic acid], for which the Kp at 0.5 h in series [1] amounted to 190. Further, in series [1] (1 h), the Kp at 1 h stood at 120. Besides, the Kp at 2 h in series [1] was found to be 180. The concentration at 0.5 h in series [1] (setting [5]) came out at 70400 ng/g; in series [1] (setting [8]), 373 ng/g. For the same compound, the concentration at 1 h in series [1] (setting [6]) turned out to be 40600 ng/g; in series [1] (setting [9]) it was 351 ng/g. For the same compound, the results for the concentration at 2 h in series [1] (setting [7]) and in series [1] (setting [10]) were 16900 ng/g and 96.4 ng/g, respectively. The pIC50 is 8.42 in series [2] and 8.96 in series [3].
For `COc1ccccc1[C@H](Cn1c(=O)n(C(C)(C)C(=O)O)c(=O)c2c(C)c(-c3ncco3)sc21)OC1C[C@H]2COC[C@@H]2C1` [Example 1, 2-[1-[(2R)-2-[[(3aR,6aR)-3,3a,4,5,6,6a-hexahydro-1H-cyclopenta[c]furan-5-yl]oxy]-2-(2-methoxyphenyl)ethyl]-5-methyl-6-oxazol-2-yl-2,4-dioxo-thieno[2,3-d]pyrimidin-3-yl]-2-methyl-propionic acid], in series [1], the “Partition ratios of liver and plasma 0.5 h” value was determined as 190; the “Partition ratios of liver and plasma 2 h” value is 600. In addition, the “Partition ratios of liver and plasma 1 h” value in series [1] (1 h) is 140. Also, in series [1] (liver), the “Average tissue concentrations (liver) 0.5 h” value amounted to 75000 ng/g and the “Average tissue concentrations (liver) 2 h” value was determined as 35500 ng/g. Moreover, the “Average tissue concentrations (liver) 1 h” value in series [1] (liver, 1 h) is given as 48300 ng/g. Also, in series [1] (plasma), the “Average concentration (plasma) 0.5 h” value is 391 ng/g and the “Average concentration (plasma) 2 h” value was determined as 59.1 ng/g. Besides, the “Average concentration (plasma) 1 h” value in series [1] (plasma, 1 h) is given as 336 ng/g. Further, in series [2], the negative-log IC50 (pIC50) was 8.44. The negative logarithm of the IC50 (pIC50) in series [3] was 8.85. In series [4], this compound yielded a half-life at 1 μM of 2.42 h, a ClHep of 38.0 mL/min/kg, a Clin vivo of 9.6 mL/min/kg and an ER of 0.1. Moreover, in series [4], the “Remaining (%) (NCF = 60 min)” value is listed as 90.6% and the “Remaining (%) (T = 60 min)” value was 71.9%.
For `COc1ccccc1C(Cn1c(=O)n(C(C)(C)C(=O)O)c(=O)c2c(C)c(-c3ncco3)sc21)OC1CC2COCC2C1` (racemic) [Example A13, reference compound], in series [1], the Kp at 0.5 h worked out at 86 and the Kp at 2 h is 170. In addition, the Kp at 1 h in series [1] (1 h) was determined as 130. Moreover, the concentration at 0.5 h in series [1] (setting [5]) turned out to be 61500 ng/g. The concentration at 1 h in series [1] (setting [6]) was 33300 ng/g. Also, the concentration at 2 h in series [1] (setting [7]) came to 14000 ng/g. Further, the concentration at 0.5 h in series [1] (setting [8]) is 717 ng/g. Besides, the concentration at 1 h in series [1] (setting [9]) turned out to be 249 ng/g. Besides, in series [1] (setting [10]), the concentration at 2 h was 82.8 ng/g. In series [4], this compound returned a half-life at 1 μM of 1.49 h, a ClHep of 60.9 mL/min/kg, a Clin vivo of 36.3 mL/min/kg and an ER of 0.4. Besides, in series [4], the “Remaining (%) (NCF = 60 min)” value was determined as 81.0% and the “Remaining (%) (T = 60 min)” value was found to be 63.4%.
In the case of `COc1ccccc1[C@H](Cn1c(=O)n(C(C)(C)C(=O)O)c(=O)c2c(C)c(-c3ncco3)sc21)O[C@H]1C[C@H]2COC[C@H]2C1` [Example 3, 2-[1-[(2R)-2-[[(3aR,6aS)-3,3a,4,5,6,6a-hexahydro-1H-cyclopenta[c]furan-5-yl]oxy]-2-(2-methoxyphenyl)ethyl]-5-methyl-6-oxazol-2-yl-2,4-dioxo-thieno[2,3-d]pyrimidin-3-yl]-2-methyl-propionic acid], in series [1], the “Partition ratios of liver and plasma 0.5 h” value is listed as 122; the “Partition ratios of liver and plasma 2 h” value was 104. Moreover, in series [1] (liver), the “Average tissue concentrations (liver) 0.5 h” value was determined as 75500 ng/g and the “Average tissue concentrations (liver) 2 h” value was determined as 26500 ng/g. Besides, in series [1] (plasma), the “Average concentration (plasma) 0.5 h” value is on record as 669 ng/g and the “Average concentration (plasma) 2 h” value was 253 ng/g. Also, in series [2], the pIC50 was 8.61. The compound further had a negative logarithm of the IC50 (pIC50) in series [3] of 9.64.

For the origin of these results see patent publication US12428432B2, “Thienopyrimidine derivatives having stereo configurations and use thereof in medicine” (SUNSHINE LAKE PHARMA CO., LTD., priority 2019, dated 2025).
